Measured values as given in publication PMC4456386, “Ligand Recognition of the Major Birch Pollen Allergen Bet v 1 is Isoform Dependent” (PLoS ONE, 2015).

Target: T1, Bet v 1d (Betula pendula, UniProt P43177)
T1 construct: made in house
Assay: 1H-15N HSQC NMR titration (chemical shift perturbation) of 15N-Bet v 1d
Format: binding, Betula verrucosa
Conditions: 1H-15N HSQC titration, up to 15-fold excess
Experimental: (§1) All NMR experiments were performed at 298 K in 50 mM sodium phosphate buffer, 50 mM NaCl, pH 7.0, 10% deuterium oxide (^2H2O) with ^15N-uniformly labelled Bet v 1 isoforms using Bruker Avance 700 MHz and Avance 800 MHz spectrometers with cryogenically cooled triple-resonance probes equipped with pulsed field-gradient capabilities. NMR data were processed using NMRPipe and visualized with NMRViewJ [89]. Three-dimensional ^15N-edited NOESY (nuclear Overhauser enhancement spectroscopy, mixing times 120 ms) experiments to assign chemical shifts were obtained with 500 μM ^15N-labeled samples of Bet v 1 isoform d or m and yielded 91% of assigned residues for Bet v 1d and 89% for Bet v 1m. The sequence-specific assignments of the amide resonances of Bet v 1a are reported elsewhere.
(§2) Interaction of Q3OS with the Bet v 1 isoforms was measured by incubating 700 μM Q3OS with 50 μM of each ^15N-labeled Bet v 1 isoform in 50 mM sodium phosphate, 50 mM NaCl buffer, pH 7.0.
(§3) For titration experiments all other flavonoids were dissolved in deuterated DMSO, while glucose and galactose were dissolved in 50 mM sodium phosphate buffer, 50 mM NaCl, pH 7.0, 10% deuterium oxide and titrated stepwise to a final excess of up to 17-fold to protein samples (ca. 100 μM). […] CSPs for ligand binding were calculated based on Eq (2): […] (2) ΔδHN and ΔδN, chemical shift differences of amide proton and nitrogen resonances, respectively, in ppm.
(§4) K d values for flavonoid binding were determined with NMRViewJ [89]. All analysable amino acid residues that were unaffected by DMSO addition and showing CSPs > 0.08 ppm were fitted to a quadratic binding curve with default settings, and an average K d app was calculated (Table 1 and S1–S3 Tables). The CSPs of all residues showing CSPs > 0.04 ppm were mapped either on models of Bet v 1d and Bet v 1m or on the Bet v 1a structure (pdb code 1BV1, [29]).

T1 sequence (P43177 whole entry): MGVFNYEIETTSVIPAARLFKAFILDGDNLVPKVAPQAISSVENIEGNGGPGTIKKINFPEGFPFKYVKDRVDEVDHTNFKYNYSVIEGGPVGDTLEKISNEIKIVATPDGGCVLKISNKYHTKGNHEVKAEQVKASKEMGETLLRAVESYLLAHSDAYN

Structure (SMILES)	binding to Bet v 1d (in words)
O=C[C@H](O)[C@@H](O)[C@@H](O)[C@H](O)CO [Galactose, galactose]	no detectable affinity
OC[C@H]1OC(O)[C@H](O)[C@@H](O)[C@@H]1O (stereo partly drawn) [Glucose, glucose]	no detectable affinity

Same assay, conditions: NMR, Bet v 1d; average of all analysable residues with CSPs > 0.08 ppm, ± standard deviation

Structure (SMILES)	Dissociation constant Kd (averaged Kd app)
O=C[C@H](O)[C@@H](O)[C@@H](O)[C@H](O)CO [Galactose, galactose]	No binding
OC[C@H]1OC(O)[C@H](O)[C@@H](O)[C@@H]1O (stereo partly drawn) [Glucose, glucose]	No binding

Target: T2, Bet v 1a (Betula pendula, UniProt P15494)
T2 construct: made in house
T2 sequence (P15494 whole entry): as the sequence (P43177 whole entry) above, with I8T, V31F, N58S, V92I, C113S, V114I, N126D counted along it
Assay: 1H-15N HSQC NMR titration (chemical shift perturbation) of 15N-Bet v 1a
Format: binding, Betula verrucosa
Conditions: 1H-15N HSQC titration
Experimental: as §1, §2, §3, §4

Structure (SMILES)	binding to Bet v 1a (in words)
O=C[C@H](O)[C@@H](O)[C@@H](O)[C@H](O)CO [Galactose, galactose]	no detectable affinity
OC[C@H]1OC(O)[C@H](O)[C@@H](O)[C@@H]1O (stereo partly drawn) [Glucose, glucose]	no detectable affinity

Same assay, conditions: NMR, Bet v 1a; average of all analysable residues with CSPs > 0.08 ppm, ± standard deviation

Structure (SMILES)	Dissociation constant Kd (averaged Kd app)
O=C[C@H](O)[C@@H](O)[C@@H](O)[C@H](O)CO [Galactose, galactose]	No binding
OC[C@H]1OC(O)[C@H](O)[C@@H](O)[C@@H]1O (stereo partly drawn) [Glucose, glucose]	No binding

Target: T3, Bet v 1m (Betula pendula, UniProt P43186)
T3 construct: made in house
T3 sequence (P43186 whole entry): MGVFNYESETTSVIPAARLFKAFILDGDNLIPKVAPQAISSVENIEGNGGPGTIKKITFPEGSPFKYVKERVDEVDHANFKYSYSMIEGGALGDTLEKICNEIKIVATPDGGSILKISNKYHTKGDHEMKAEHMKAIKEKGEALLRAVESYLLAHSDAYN
Assay: 1H-15N HSQC NMR titration (chemical shift perturbation) of 15N-Bet v 1m
Format: binding, Betula verrucosa
Conditions: 1H-15N HSQC titration, up to 15-fold excess

Structure (SMILES)	binding to Bet v 1m (in words)
O=C[C@H](O)[C@@H](O)[C@@H](O)[C@H](O)CO [Galactose, galactose]	no detectable affinity
OC[C@H]1OC(O)[C@H](O)[C@@H](O)[C@@H]1O (stereo partly drawn) [Glucose, glucose]	no detectable affinity

Target: T3, Bet v 1m
Assay: as above
Format: binding, Betula verrucosa
Conditions: NMR, average of all analysable residues with CSPs > 0.08 ppm, ± standard deviation
Experimental: as §1, §2, §3, §4

Structure (SMILES)	Dissociation constant Kd (averaged Kd app)
O=C[C@H](O)[C@@H](O)[C@@H](O)[C@H](O)CO [Galactose, galactose]	No binding
OC[C@H]1OC(O)[C@H](O)[C@@H](O)[C@@H]1O (stereo partly drawn) [Glucose, glucose]	No binding
